Where a SMILES comes first, the peptide text is derived from it.

Consider five compounds from publication PMC8819291, “Adaptively evolved human oral actinomyces‐sourced defensins show therapeutic potential” (EMBO Molecular Medicine, 2021).

In data set [1] the test system is fresh erythrocytes from the female ICR mice. Nature of the data set: Hemolysis assay. The settings on record: 25 μM. Format: cell-based, Mus musculus.
Procedure: Hemolytic activity of peptides against fresh erythrocytes from the female ICR mice (Mus musculus) (25 g, 6 weeks of age) was assayed according to the standard method (Zhu et al, [2012]). Peptides were diluted with 0.9% NaCl to the indicated concentration. The percentage of hemolysis is determined as (A pep–A blank)/(A tot–A blank) × 100, in which “A” represents absorbance measured at 570 nm. A blank and A pep were evaluated in the absence or presence of peptides. One hundred percent hemolysis (A tot) was obtained in the presence of 1% Triton X‐100.
The subject of a further data set is HL‐60 cells. The data set can be described thus: Peptide-induced MCP-1 release (ELISA). The settings on record: 24 h. The format is cell-based, human. How it is done: (§1) A549 and HL‐60 cells were purchased from the Cell Resource Center of the Chinese Academy of Medical Sciences (Beijing, China). They were tested for mycoplasma contamination with the Mycoplasma Detection Kit (Solarbio, China) and only negative cultures were used in our experiments. The cells were cultured in complete Dulbecco’s Modified Eagle Medium (DMEM) supplemented with 10% fetal bovine serum (FBS), penicillin (100 units/ml), and streptomycin ([…]) at 37°C in 5% CO2. The culture medium was changed every 2 days. Cells were passaged every 4–5 days with 0.25% trypsin (Gibco, USA). For enzyme‐linked immunosorbent assay (ELISA) (Hara et al, [2008]), A549 or HL‐60 cells were seeded in six‐well plates at a density of 1 × 10^5 cells/well and were incubated at 37°C in 5% CO2 overnight. Medium was aspirated and replaced with fresh complete DMEM supplemented with 10% FBS or serum‐free medium, both containing different concentrations of polypeptides for 24 h. Then, the supernatants were harvested for quantification of the IL‐8 amount in A549 by the Human CXCL8/IL‐8 Quantikine ELISA Kit (R&D Systems Inc., Minneapolis, MN, USA) and the MCP‐1 amount in HL‐60 by the Human MCP‐1 ELISA Kit (Boster Biological Technology Co., Ltd, Wuhan, China) as per the manufactures’ instructions.

A further data set deals with A549 cells. The data set can be described thus: Peptide-induced IL-8 release (ELISA). Particulars: 24 h. The format is cell-based, human. Here is the method: as §1
Background: An ELISA detects its analyte on a solid surface through an enzyme-linked reagent.

A further data set relates to HL‐60. Nature of the data set: Cytotoxicity assay (CCK-8). Particulars: 72 h. The format is cell-based, human.
The next data set concerns SP D39. Nature of the data set: Mouse lung infection model. Here is the method:
To this end, ICR female mice (30 g each mouse; 9–10 weeks of age) were anesthetized with 1.25% 2,2,2‐Tribromoethanol (Avertin) (Macklin, Shanghai, China) and hung by their front teeth on a steel wire. Then, they were inoculated intranasally with 10–20 µl bacterial suspension of SP D39 of fresh overnight culture (1.5 × 10^6 CFU per mouse) and then were removed from the wire to their cages. A control group of untreated mice was included. […] Mice were treated with penicillin as a positive control. At 48 h post‐infection, the mice were sacrificed and lungs removed and homogenized in 0.9% saline. Colony counts from lung homogenates were determined and the total number of colonies/lungs per mouse was calculated. Schematic representation is provided in Appendix Fig S16B.

A short description of data set [2]: Bioaffinity ESI-MS with UMP. The settings on record: 25 mM ammonium acetate (pH5.2). Format: binding, Staphylococcus aureus. Here is the method: All components for interactions were dissolved in 25 mM ammonium acetate (pH5.2). Electrospray spectra were recorded with Waters SynaptG2‐Si mass spectrometer (Waters, Manchester, UK) and measurements were performed with positive ESI in resolution mode. Ions were scanned in a mass range of 500–2,000 m/z with the following conditions: the capillary voltage at 1,500 V; the cone voltage at 40 V; the source block temperature at 30°C. Spectra were recorded and processed by the software Masslynx4.1 (Waters, Manchester, UK).

The nature of data set [3]: Circular dichroism spectroscopy with UMP. Format: binding. The settings on record: 50 mM NH4OAc, room temperature. How it is done:
The spectra were measured at room temperature from 300 to 200 nm by using a quartz cell of 1.0 mm thickness. Data were collected at 1‐nm intervals with a scan rate of 2 nm/s.
For orientation: CD spectra are sensitive to the conformation of chiral molecules.

Data set [4] has as its system BM cells (Bacillus megaterium). Nature of the data set: Scanning electron microscope observation of cell deformation. The format is cell-based. The settings on record: 10 × C L, 37°C, 90 min. How it is done: After centrifugation, bacterial pellets were fixed with 2.5% glutaraldehyde for 1 h, followed by washing three times with PBS buffer (pH 7.3). Dehydration was carried out with a series of graded ethanol solutions. Cells were then dried by BAL‐TEC CPD‐030 critical point dryer (Bal‐Tec AG, Balzers, Liechtenstein) before being mounted on carbon tape and sputtered with a gold coating (BAL‐TEC SCD005). Images were visualized in FEI QUANTA 450.

For a further data set, the system named is MRSA P1374. The data set can be described thus: Cytoplasmic accumulation of UMP. Format: cell-based, Staphylococcus aureus. Particulars: 20 × C L, 30 min; RP-HPLC, UV 260 nm. How it is done: To analyze the cytoplasmic nucleotide pool, we carried out the cytoplasmic UMP accumulation experiment according to the literature (Brötz et al, [1997]) with some modifications. MRSA P1374 cells were grown in 40‐ml broth medium at 37°C to an OD600 of 0.5. The culture was supplemented with 130 μg/ml chloramphenicol. […] After 30 min of incubation, UMP was extracted from the harvested cells by stirring them into boiling water. The suspension was then centrifuged (43,000 g, 60 min) at 4°C and the supernatant was lyophilized and dissolved in 400 μl of 50 mM ammonium acetate (pH 5.2) and adjusted to pH 2.0 with acetic acid. After acidification, the supernatant was fractionated by RP‐HPLC on Hypersil ODS (250 × 4.6 mm; Thermo Scientific) and UMP was eluted from the column with a linear gradient from 0 to 40% methanol in 50 mM NH4Ac (pH 5.2) within 40 min with a flow rate of 1 ml/min. UV absorbance was monitored at 260 nm. UMP was identified by ultraperformance liquid chromatography–high resolution mass spectrometry (UPLC‐HRMS) and MALDI‐TOF. Both methods yielded consistent results.

Where [5] appears, read: FBS-containing medium, 25 μg/mL, replicate 1.
The mark [6] stands for this setting: FBS-containing medium, 25 μg/mL, replicate 2.
Where [7] appears, read: FBS-containing medium, 25 μg/mL, replicate 3.
Where [8] appears, read: FBS-containing medium, 50 μg/mL, replicate 1.
Where [9] appears, read: FBS-containing medium, 50 μg/mL, replicate 2.
[10] abbreviates: FBS-containing medium, 50 μg/mL, replicate 3.
The mark [11] stands for this setting: FBS-containing medium, 100 μg/mL, replicate 1.
Setting [12] is: FBS-containing medium, 100 μg/mL, replicate 2.
The mark [13] stands for this setting: FBS-containing medium, 100 μg/mL, replicate 3.
[14] abbreviates: Serum-Free medium, 25 μg/mL, replicate 1.
Setting [15] is: Serum-Free medium, 25 μg/mL, replicate 2.
Where [16] appears, read: Serum-Free medium, 25 μg/mL, replicate 3.
Where [17] appears, read: Serum-Free medium, 50 μg/mL, replicate 1.
Setting [18] is: Serum-Free medium, 50 μg/mL, replicate 2.
Setting [19] is: Serum-Free medium, 50 μg/mL, replicate 3.
The mark [20] stands for this setting: Serum-Free medium, 100 μg/mL, replicate 1.
Setting [21] is: Serum-Free medium, 100 μg/mL, replicate 2.
[22] abbreviates: Serum-Free medium, 100 μg/mL, replicate 3.

`CC[C@H](C)[C@H](NC(=O)[C@H](CCCCN)NC(=O)[C@@H](NC(=O)[C@H](C)NC(=O)[C@H](CC(C)C)NC(=O)[C@H](CCCCN)NC(=O)[C@H](Cc1ccccc1)NC(=O)[C@H](CC(C)C)NC(=O)[C@H](Cc1cnc[nH]1)NC(=O)CNC(=O)[C@H](Cc1ccccc1)NC(=O)[C@@H](N)Cc1ccccc1)[C@@H](C)O)C(=O)N[C@H](C(=O)N1CCC[C@H]1C(=O)N[C@@H](CO)C(=O)N[C@@H](CC(C)C)C(=O)N[C@@H](Cc1ccccc1)C(=O)N[C@@H](CCC(N)=O)C(=O)O)[C@@H](C)CC` [Meucin-18, reference compound] (H-FFGHLFKLATKIIPSLFQ-OH): the “Hemolysis (%)” value in data set [1] (technical replicate 1) is 91.54%; in data set [1] (technical replicate 2) it was 95.84%; in data set [1] (technical replicate 3), 92.43%.
With “LL-37: the human AMP with immunomodulatory properties, chemically synthesized, positive control [reference compound]”, the “MCP-1” value in the data set on HL‐60 cells (setting [5]) is given as 486 pg/mL; with HL‐60 cells (setting [6]), 414 pg/mL; in the data set with HL‐60 cells (setting [7]) it was 465 pg/mL; in the data set on HL‐60 cells (setting [8]), 538 pg/mL; in the data set on HL‐60 cells (setting [9]) it was 514 pg/mL; with HL‐60 cells (setting [10]), 517 pg/mL. Moreover, the “MCP-1” value stood at 545 pg/mL in the data set with HL‐60 cells (setting [11]); 571 pg/mL in the data set with HL‐60 cells (setting [12]); 524 pg/mL with HL‐60 cells (setting [13]); 431 pg/mL in the data set on HL‐60 cells (setting [14]); 519 pg/mL in the data set with HL‐60 cells (setting [15]); 410 pg/mL in the data set on HL‐60 cells (setting [16]). Besides, the “MCP-1” value stood at 583 pg/mL in the data set with HL‐60 cells (setting [17]); 543 pg/mL with HL‐60 cells (setting [18]); 562 pg/mL in the data set on HL‐60 cells (setting [19]); 459 pg/mL in the data set with HL‐60 cells (setting [20]); 565 pg/mL in the data set on HL‐60 cells (setting [21]); 438 pg/mL in the data set with HL‐60 cells (setting [22]). The “IL-8” value with A549 cells (setting [5]) worked out at 172 pg/mL; in the data set with A549 cells (setting [6]), 166 pg/mL; in the data set with A549 cells (setting [7]) it was 172 pg/mL; with A549 cells (setting [8]), 156 pg/mL; with A549 cells (setting [9]), 129 pg/mL; in the data set with A549 cells (setting [10]), 155 pg/mL. In addition, the “IL-8” value stood at 173 pg/mL with A549 cells (setting [11]); 195 pg/mL in the data set on A549 cells (setting [12]); 192 pg/mL with A549 cells (setting [13]); 57 pg/mL with A549 cells (setting [14]); 41 pg/mL with A549 cells (setting [15]); 47 pg/mL in the data set with A549 cells (setting [16]). In addition, the “IL-8” value with A549 cells (setting [17]) amounted to 66 pg/mL; in the data set on A549 cells (setting [18]) it was 57 pg/mL; in the data set with A549 cells (setting [19]), 78 pg/mL; with A549 cells (setting [20]) it was 133 pg/mL; in the data set on A549 cells (setting [21]), 122 pg/mL; in the data set on A549 cells (setting [22]), 116 pg/mL. Besides, the “Cellular variability of HL-60 (%)” value in the data set with HL‐60 (25 μg/mL, replicate 1) is on record as 95%; with HL‐60 (25 μg/mL, replicate 2) it was 96%; in the data set with HL‐60 (25 μg/mL, replicate 3), 103%; with HL‐60 (50 μg/mL, replicate 1), 57%; in the data set with HL‐60 (50 μg/mL, replicate 2) it was 56%; with HL‐60 (50 μg/mL, replicate 3), 64%. The “Cellular variability of HL-60 (%)” value came to 25% in the data set on HL‐60 (100 μg/mL, replicate 1); 25% with HL‐60 (100 μg/mL, replicate 2); 26% with HL‐60 (100 μg/mL, replicate 3).
With penicillin [reference compound], the “Log10 (CFU per lung)” value is listed as 3.6 Log10 (CFU per lung) with SP D39 (8.35 mg/kg i.m. 24 h after intranasal SP D39, lungs at 48 h post‐infection, animal 1); 4.3 Log10 (CFU per lung) in the data set with SP D39 (8.35 mg/kg i.m., animal 2); 3.23 Log10 (CFU per lung) in the data set with SP D39 (8.35 mg/kg i.m., animal 3); 3.28 Log10 (CFU per lung) in the data set with SP D39 (8.35 mg/kg i.m., animal 4); 3.3 Log10 (CFU per lung) in the data set on SP D39 (8.35 mg/kg i.m., animal 5); 1.3 Log10 (CFU per lung) in the data set with SP D39 (16.7 mg/kg i.m., animal 1). The “Log10 (CFU per lung)” value in the data set with SP D39 (16.7 mg/kg i.m., animal 2) was 1.48 Log10 (CFU per lung); in the data set with SP D39 (16.7 mg/kg i.m., animal 3), 1.3 Log10 (CFU per lung); in the data set on SP D39 (16.7 mg/kg i.m., animal 4), 4.2 Log10 (CFU per lung); with SP D39 (16.7 mg/kg i.m., animal 5) it was 4.68 Log10 (CFU per lung); in the data set on SP D39 (30 mg/kg i.m., animal 1) it was 3 Log10 (CFU per lung); in the data set with SP D39 (30 mg/kg i.m., animal 2), 1 Log10 (CFU per lung). Also, the “Log10 (CFU per lung)” value in the data set on SP D39 (30 mg/kg i.m., animal 3) was 2.63 Log10 (CFU per lung); in the data set with SP D39 (30 mg/kg i.m., animal 4), 1 Log10 (CFU per lung); in the data set on SP D39 (30 mg/kg i.m., animal 5), 1 Log10 (CFU per lung).
Turning to “drosomycin: a specific antifungal defensin (DCLSGRYKGPCAVWDNETCRRVCKEEGRSSGHCSPSLKCWCEGC; UniProt P41964 27-70, looked up)”, in data set [2], the “Non-covalent complex with UMP by ESI-MS” value is listed as “not”.
Consider `CN[C@H](CC(C)C)C(=O)N[C@H]1C(=O)N[C@@H](CC(N)=O)C(=O)N[C@H]2C(=O)N[C@H]3C(=O)N[C@H](C(=O)N[C@H](C(=O)O)c4cc(O)cc(O)c4-c4cc3ccc4O)[C@H](O)c3ccc(c(Cl)c3)Oc3cc2cc(c3O[C@@H]2O[C@H](CO)[C@@H](O)[C@H](O)[C@H]2O[C@H]2C[C@](C)(N)[C@H](O)[C@H](C)O2)Oc2ccc(cc2Cl)[C@H]1O` [vancomycin, reference compound], for which, in data set [3], the “Complex with UMP by CD absorption signatures” value is “a complex was formed”. In data set [4], the “Cell shape by scanning electron microscopy” value is reported as “deformation of the cell shape”. Also, the “Non-covalent complex with UMP by ESI-MS” value in data set [2] is “complex formation”. Moreover, the “Cytoplasmic accumulation of UMP” value with MRSA P1374 was “accumulated”.
